In test [1] the target is E3 ubiquitin-protein ligase XIAP/Bromodomain-containing protein 4 (Homo sapiens) (UniProt P98170+O60885). The test can be described thus: Protac activity at IAP/BRD4 in human SK-MEL-28 cells assessed as induction of BRD4 degradation at 0.1 to 10 uM measured after 24 hrs by Western blotting analysis. As to conditions: dose 0.1-10 µM. The class given is cell-based. For orientation: Immunoblotting shows a protein as a band on a membrane.

For test [2], the target named is von Hippel-Lindau disease tumor suppressor/Bromodomain-containing protein 4 (Homo sapiens) (UniProt O60885+P40337). The test can be described thus: Protac activity at VHL/BRD4 in human MCF7 cells assessed as induction of BRD4 degradation at 10 uM measured after 24 hrs by Western blotting analysis. The class given is cell-based.

Each structure is given as a SMILES string. The source made the active and inactive calls. The rule behind the calls is not given here.

Chain of von Hippel-Lindau disease tumor suppressor/Bromodomain-containing protein 4 (Homo sapiens) (P40337 whole entry, looked up, other chains not shown): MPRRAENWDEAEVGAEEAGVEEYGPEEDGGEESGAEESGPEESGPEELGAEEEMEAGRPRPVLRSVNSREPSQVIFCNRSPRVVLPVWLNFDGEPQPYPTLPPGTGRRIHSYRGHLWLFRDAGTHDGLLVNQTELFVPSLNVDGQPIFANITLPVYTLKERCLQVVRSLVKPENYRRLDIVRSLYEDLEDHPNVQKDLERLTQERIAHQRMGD
Chain of E3 ubiquitin-protein ligase XIAP/Bromodomain-containing protein 4 (Homo sapiens) (P98170 whole entry, looked up, other chains not shown): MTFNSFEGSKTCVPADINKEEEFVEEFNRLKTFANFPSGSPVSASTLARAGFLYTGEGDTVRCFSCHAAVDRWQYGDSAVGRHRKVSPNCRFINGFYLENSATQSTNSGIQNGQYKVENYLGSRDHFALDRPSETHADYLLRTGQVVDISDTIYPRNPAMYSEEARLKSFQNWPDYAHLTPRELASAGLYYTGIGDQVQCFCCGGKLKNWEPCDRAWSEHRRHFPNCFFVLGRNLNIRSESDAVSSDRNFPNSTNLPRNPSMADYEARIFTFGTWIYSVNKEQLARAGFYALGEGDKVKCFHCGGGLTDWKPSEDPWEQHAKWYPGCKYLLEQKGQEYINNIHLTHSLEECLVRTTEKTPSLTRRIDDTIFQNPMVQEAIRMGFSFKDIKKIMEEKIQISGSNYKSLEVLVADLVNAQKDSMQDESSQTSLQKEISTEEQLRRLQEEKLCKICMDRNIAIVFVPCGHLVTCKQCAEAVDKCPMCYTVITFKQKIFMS

As for `CN[C@@H](C)C(=O)N[C@H](C(=O)N1CCC[C@H]1c1nc(C(=O)c2cccc(OCC(=O)NCCCNC(=O)C[C@@H]3N=C(c4ccc(Cl)cc4)c4c(sc(C)c4C)-n4c(C)nnc43)c2)cs1)C1CCCCC1`, the outcome in test [1] was Active.

For the molecule `CC1=C(C)C2C(c3ccc(Cl)cc3)=N[C@@H](CC(=O)NCCOCCOCCNC(=O)CCCC(=O)N[C@H](C(=O)N3C[C@H](O)C[C@H]3C(=O)NCc3ccc(-c4scnc4C)cc3)C(C)(C)C)c3nnc(C)n3C2S1` (some centres undefined), the outcome in test [2] was inactive.

Regarding `CC1=C(C)C2C(c3ccc(Cl)cc3)=N[C@@H](CC(=O)NCCCNC(=O)CCCC(=O)N[C@H](C(=O)N3C[C@H](O)C[C@H]3C(=O)NCc3ccc(-c4scnc4C)cc3)C(C)(C)C)c3nnc(C)n3C2S1` (some centres undefined), the result in test [2] was Active.

`CN[C@@H](C)C(=O)N[C@H](C(=O)N1CCC[C@H]1c1nc(C(=O)c2cccc(OCC(=O)NCCOCCOCCOCCNC(=O)C[C@@H]3N=C(c4ccc(Cl)cc4)c4c(sc(C)c4C)-n4c(C)nnc43)c2)cs1)C1CCCCC1`: the outcome in test [1] was Active.
